This is an account of results in ChEMBL document CHEMBL3525924, “Cytochrome P450 3A-mediated microsomal biotransformation of 1α,25-dihydroxyvitamin D3 in mouse and human liver: drug-related induction and inhibition of catabolism” (Drug Metab Dispos, 2012).

Common to all, as to format: ADME
Data set [1] in a line: Drug metabolism in prednisone treated CD1 mouse liver microsomes treated with 20 uM of 1alpha,25(OH)2D3 assessed as metabolite formation after 30 mins by LC/MS analysis in presence of NADPH. The note with it: 0.5 h. In general terms: Liver microsomes are a subcellular fraction often used to study metabolism.
Data set [2] deals with Liver microsome. In words: Drug level in human liver microsomes assessed as retention time treated with 20 uM of 1alpha,25(OH)2D3 after 30 mins by LC/MS analysis in presence of NADPH. To be noted: 0.5 h.
Data set [3] in a line: Drug metabolism in prednisone treated CD1 mouse liver microsomes assessed as metabolite formation at 20 uM after 30 mins by LC/MS analysis in presence of NADPH and CYP2E inhibitor di-ethyldithiocarbamate. To be noted: 0.5 h.
Data set [4] in a line: Drug metabolism in dexamethasone treated CD1 mouse liver microsomes assessed as metabolite formation at 20 uM after 30 mins by LC/MS analysis in presence of NADPH and CYP2E inhibitor di-ethyldithiocarbamate. To be noted: 0.5 h.
The nature of data set [5]: Drug metabolism in CD1 mouse liver microsomes assessed as metabolite formation at 20 uM after 30 mins by LC/MS analysis in presence of NADPH and CYP2E inhibitor di-ethyldithiocarbamate. To be noted: 0.5 h.
Data set [6] is described as follows: Drug metabolism in prednisone treated CD1 mouse liver microsomes assessed as metabolite formation at 20 uM after 30 mins by LC/MS analysis in presence of NADPH and CYP2A inhibitor 8-methoxypsoralen. The note with it: 0.5 h.
Data set [7] in a line: Drug metabolism in dexamethasone treated CD1 mouse liver microsomes assessed as metabolite formation at 20 uM after 30 mins by LC/MS analysis in presence of NADPH and CYP2A inhibitor 8-methoxypsoralen. To be noted: 0.5 h.
Data set [8] in a line: Drug metabolism in CD1 mouse liver microsomes assessed as metabolite formation at 20 uM after 30 mins by LC/MS analysis in presence of NADPH and CYP2A inhibitor 8-methoxypsoralen. To be noted: 0.5 h.
Data set [9] is described as follows: Drug metabolism in prednisone treated CD1 mouse liver microsomes assessed as metabolite formation at 20 uM after 30 mins by LC/MS analysis in presence of NADPH and CYP2B inhibitor orphenadrine. The note with it: 0.5 h.
Data set [10] is described as follows: Drug metabolism in dexamethasone treated CD1 mouse liver microsomes assessed as metabolite formation at 20 uM after 30 mins by LC/MS analysis in presence of NADPH and CYP2B inhibitor orphenadrine. To be noted: 0.5 h.
Data set [11] in a line: Drug metabolism in CD1 mouse liver microsomes assessed as metabolite formation at 20 uM after 30 mins by LC/MS analysis in presence of NADPH and CYP2B inhibitor orphenadrine. To be noted: 0.5 h.
Data set [12] concerns Liver microsome. In words: Drug metabolism in human liver microsomes assessed as IC50 for ritonavir-mediated inhibition of metabolite formation at 20 uM after 30 mins by LC/MS analysis. The note with it: 0.5 h.
The subject of data set [13] is Liver microsome. In words: Drug metabolism in human liver microsomes assessed as IC50 for ketoconazole-mediated inhibition of metabolite formation at 20 uM after 30 mins by LC/MS analysis. To be noted: 0.5 h.
In data set [14] the test system is Liver microsome. In words: Drug metabolism in human liver microsomes assessed as IC50 for clarithromycin-mediated inhibition of metabolite formation at 20 uM after 30 mins by LC/MS analysis. The note with it: 0.5 h.
For data set [15], the system named is Liver microsome. In words: Drug metabolism in human liver microsomes assessed as IC50 for tamoxifen-mediated inhibition of metabolite formation at 20 uM after 30 mins by LC/MS analysis. The note with it: 0.5 h.
Data set [16] has as its system Liver microsome. In words: Drug metabolism in human liver microsomes assessed as IC50 for docetaxel-mediated inhibition of metabolite formation at 20 uM after 30 mins by LC/MS analysis. The note with it: 0.5 h.
The nature of data set [17]: Drug level in dexamethasone treated CD1 mouse liver microsomes treated with 20 uM of 1alpha,25(OH)2D3 after 30 mins by LC/MS analysis in presence of NADPH relative to vehicle treated mouse. To be noted: 0.5 h.
Data set [18] is described as follows: Drug metabolism in prednisone treated CD1 mouse liver microsomes assessed as metabolite formation at 20 uM after 30 mins by LC/MS analysis in presence of NADPH and CYP1A2 inhibitor furafyline. The note with it: 0.5 h.
The nature of data set [19]: Drug metabolism in dexamethasone treated CD1 mouse liver microsomes assessed as metabolite formation at 20 uM after 30 mins by LC/MS analysis in presence of NADPH and CYP1A2 inhibitor furafyline. To be noted: 0.5 h.
Data set [20] can be described thus: Drug metabolism in CD1 mouse liver microsomes assessed as metabolite formation at 20 uM after 30 mins by LC/MS analysis in presence of NADPH and CYP1A2 inhibitor furafyline. The note with it: 0.5 h.
Data set [21] can be described thus: Drug metabolism in prednisone treated CD1 mouse liver microsomes assessed as metabolite formation at 20 uM after 30 mins by LC/MS analysis in presence of NADPH and CYP1A1 inhibitor alpha-naphthoflavone. To be noted: 0.5 h.
The nature of data set [22]: Drug metabolism in dexamethasone treated CD1 mouse liver microsomes assessed as metabolite formation at 20 uM after 30 mins by LC/MS analysis in presence of NADPH and CYP1A1 inhibitor alpha-naphthoflavone. The note with it: 0.5 h.
Data set [23] is described as follows: Drug metabolism in CD1 mouse liver microsomes assessed as metabolite formation at 20 uM after 30 mins by LC/MS analysis in presence of NADPH and CYP1A1 inhibitor alpha-naphthoflavone. To be noted: 0.5 h.
Data set [24] can be described thus: Drug metabolism in prednisone treated CD1 mouse liver microsomes assessed as metabolite formation at 20 uM after 30 mins by LC/MS analysis in presence of NADPH and CYP2C inhibitor sulfaphenazole. To be noted: 0.5 h.
Data set [25] can be described thus: Drug metabolism in dexamethasone treated CD1 mouse liver microsomes assessed as metabolite formation at 20 uM after 30 mins by LC/MS analysis in presence of NADPH and CYP2C inhibitor sulfaphenazole. To be noted: 0.5 h.
The nature of data set [26]: Drug metabolism in CD1 mouse liver microsomes assessed as metabolite formation at 20 uM after 30 mins by LC/MS analysis in presence of NADPH and CYP2C inhibitor sulfaphenazole. The note with it: 0.5 h.
Data set [27] can be described thus: Drug metabolism in prednisone treated CD1 mouse liver microsomes assessed as metabolite formation at 20 uM after 30 mins by LC/MS analysis in presence of NADPH and CYP2D inhibitor quinine. To be noted: 0.5 h.
Data set [28] can be described thus: Drug metabolism in dexamethasone treated CD1 mouse liver microsomes assessed as metabolite formation at 20 uM after 30 mins by LC/MS analysis in presence of NADPH and CYP2D inhibitor quinine. To be noted: 0.5 h.
Data set [29] in a line: Drug metabolism in CD1 mouse liver microsomes assessed as metabolite formation at 20 uM after 30 mins by LC/MS analysis in presence of NADPH and CYP2D inhibitor quinine. The note with it: 0.5 h.
Data set [30] has as its target T1, Cytochrome P450 3A4 (Homo sapiens, UniProt P08684). In words: Drug metabolism assessed as 1 uM ketoconazole-mediated inhibition of human CYP3A4-mediated metabolite formation by LC/MS analysis. The note with it: recombinant enzyme.
Data set [31] deals with T1, Cytochrome P450 3A4. In words: Drug metabolism assessed as 10 uM ritonavir-mediated inhibition of human CYP3A4-mediated metabolite formation by LC/MS analysis. The note with it: recombinant enzyme.
Data set [32] deals with T1, Cytochrome P450 3A4. In words: Drug metabolism assessed as 100 uM tamoxifen-mediated inhibition of human CYP3A4-mediated metabolite formation by LC/MS analysis. The note with it: recombinant enzyme.
The target of data set [33] is T1, Cytochrome P450 3A4. In words: Drug metabolism assessed as 100 uM troleandromycin-mediated inhibition of human CYP3A4-mediated metabolite formation by LC/MS analysis. The note with it: recombinant enzyme.

T1 sequence (P08684 whole entry): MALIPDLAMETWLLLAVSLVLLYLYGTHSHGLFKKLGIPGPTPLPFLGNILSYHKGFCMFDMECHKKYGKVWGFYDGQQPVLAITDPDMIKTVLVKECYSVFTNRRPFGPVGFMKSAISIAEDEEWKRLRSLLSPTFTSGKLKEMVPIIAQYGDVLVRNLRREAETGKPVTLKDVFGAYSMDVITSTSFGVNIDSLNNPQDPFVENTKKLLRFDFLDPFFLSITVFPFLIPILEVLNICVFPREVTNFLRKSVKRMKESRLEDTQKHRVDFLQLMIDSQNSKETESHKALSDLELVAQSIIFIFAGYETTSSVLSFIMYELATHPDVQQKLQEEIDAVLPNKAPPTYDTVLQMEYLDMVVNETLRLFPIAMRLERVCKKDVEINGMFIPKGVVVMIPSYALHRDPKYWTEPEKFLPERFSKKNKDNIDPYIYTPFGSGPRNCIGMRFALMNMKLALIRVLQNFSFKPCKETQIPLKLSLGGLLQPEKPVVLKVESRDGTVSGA

On to `C=C1/C(=C\C=C2/CCC[C@]3(C)[C@@H]([C@H](C)C[C@@H](O)CC(C)(C)O)CC[C@@H]23)C[C@@H](O)C[C@@H]1O`, for which the Drug metabolism result in data set [1], in [3], in data set [4], in data set [5], in data set [6] and in data set [7] was “metabolite_detected” in each case. Besides, the Drug metabolism result in data set [8], in data set [9], in [10], in data set [11], in data set [17] and in [18] was “metabolite_detected” each time. In addition, the Drug metabolism entry in [19], in [20], in [21], in [22], in data set [23] and in data set [24] was “metabolite_detected” in each case. In addition, the Drug metabolism result in [25], in [26], in data set [27], in [28] and in [29] was “metabolite_detected” each time. The Retention_time in the data set on Liver microsome [2] is on record as 9.7 min. Further, the concentration for half-maximal inhibition (IC50) in the data set on Liver microsome [12] was 16 nM; in the data set on Liver microsome [13], 32 nM; in the data set with Liver microsome [14], greater than 30000 nM; with Liver microsome [15] it was greater than 40000 nM; with Liver microsome [16] it was 38 nM.
Consider `Cc1nnc2n1-c1ccc(Cl)cc1C(c1ccccc1Cl)=NC2` [TRIAZOLAM], for which the Drug metabolism result on Cytochrome P450 3A4 [30], at Cytochrome P450 3A4 [31], at Cytochrome P450 3A4 [32] and at Cytochrome P450 3A4 [33] was “metabolite_not_detected” in each case.

What is called IC50 is the concentration at which inhibition is half-maximal.
